Laboratory results taken from patent publication EP0755928B1, “5-AMINOFLAVONE DERIVATIVES” (KYOWA HAKKO KOGYO CO., Ltd., priority 1995, dated 1996).

Experiments:
[1] = tested on: Human mammary cancer MCF-7 cell; test: Human mammary cancer MCF-7 cell growth inhibition test (neutral red); assay type: cell-based; settings: MCF7, MCF-7 cells, 72 hours, medium with 10^-8M estradiol, neutral red absorbance at 550 nm
Protocol: Human mammary cancer MCF-7 cell growth inhibition test
Each 0.1 ml of MCF-7 cells which had been prepared in a concentration of 5 x 10^4/ml using a medium prepared by adding 10% bovine fetal serum, 10^-8M estradiol (manufactured by Sigma), 100 units/ml penicillin and 100 µg/ml streptomycin to RPMI1640 medium (referred to as Medium B hereinafter) was distributed in each well of 96 well-microtiter plate. […] The supernatant was removed, each 0.1 ml of Medium B containing 0.02% neutral red was added to the residue, the mixture was allowed to stand at 37 °C for 1 hour in a CO2 gas incubator and the cells were stained by neutral red dye. The supernatant was removed and the residue was washed once with a physiological saline. Then, the dye was extracted with 0.001 N hydrochloric acid/30% ethanol and the absorbance at 550 nm was determined with a microplatereader.

[2] = tested on: estrogen-dependent human mammary cancer MCF-7; test: Antitumor effects against estrogen-dependent human mammary cancer MCF-7 transplanted in nude mice; assay type: in vivo, female BALB/c-nu/nu mouse; settings: Mus musculus, MCF7, po; dose 25 mg/kg orally, 5 days per week for two weeks; ratio of V/V0 of treated group to control group; judgement date day 14 to 25, differs per compound; read-out: T/C
Source text: Antitumor effects against estrogen-dependent human mammary cancer MCF-7
The tumor fragment (2 mm x 2 mm x 2mm) of human hormone dependent mammary cancer MCF-7 was transplanted subcutaneously in the flank of female BALB/c-nu/nu mouse (Nihon Crea), 7 to 9 weeks age. […] Mice having the tumor volume 25 to 200 mm^3 were selected 3 to 4 weeks after transplantation, and the test compounds were orally administered repeatedly to the groups (5 animals per group) for 5 days per a week, for total two weeks. In addition, estradiol propionate was administered again on the date of initial administration of the test compounds. Length and width of the tumor were determined every day, and the tumor volumes were calculated by means of ellipsoid approximation according to the following equation: […] [formula]
The tumor volume at initial administration (V0) and on the day of judgement (V) was calculated, and the tumor growth rate (V/V0) was calculated. T/C value was obtained as the ratio of V/V0 value of treated group relative to that of control group.

[3] = tested on: Mature female BALB/c mice; test: Effect on uterus weight of mature mouse (anti-estrogenic activity); assay type: in vivo; settings: dose 25 mg/kg, orally, repeatedly for 4 days; uteri isolated after 5 days; not treated group 106 mg
Protocol: The effect against the decrease in uterus weight of mature mouse
Mature female BALB/c mice, 9 weeks age, were divided into two groups (6 animals per group). The test compounds were repeatedly administered orally to one group for 4 days. After 5 days, the uteri were isolated and the weight thereof was measured.

Compound: Nc1ccc(-c2cc(=O)c3c(N)c(F)c(COC(=O)CN4CCC(O)CC4)c(F)c3o2)cc1F [Compound 12, 5-Amino-2-(4-amino-3-fluorophenyl) -6,8-difluoro-7-(4-hydroxypiperidino)acetoxymethyl-4H-1-benzopyran-4-one]
- IC50 [1]: 18 nM
- response vs control in vivo at 25 mg/kg [2]: 3.5%

Compound: CCN(CC)C(=O)OCc1c(F)c(N)c2c(=O)cc(-c3ccc(N)c(F)c3)oc2c1F [Compound 1, 5-Amino-2-(4-amino-3-fluorophenyl)-7-diethylcarbamoyloxymethyl-6,8-difluoro-4H-1-benzopyran-4-one]
- IC50 [1]: 350 nM

Compound: Nc1ccc(-c2cc(=O)c3c(N)c(F)c(COC(=O)CN4CCOCC4)c(F)c3o2)cc1F [Compound 11, 5-Amino-2-(4-amino-3-fluorophenyl)-6,8-difluoro-7-morpholinoacetoxymethyl-4H-1-benzopyran-4-one]
- IC50 [1]: 17 nM
- response vs control in vivo at 25 mg/kg [2]: 4.4%

Compound: Nc1ccc(-c2cc(=O)c3c(N)c(F)c(COC(=O)CN4CCCCC4)c(F)c3o2)cc1F [Compound 9, 5-Amino-2-(4-amino-3-fluorophenyl)-6,8-difluoro-7-piperidinoacetoxymethyl-4H-1-benzopyran-4-one]
- IC50 [1]: 33 nM
- response vs control in vivo at 25 mg/kg [2]: 4.2%

Compound: CN(C)CCC(=O)OCc1c(F)c(N)c2c(=O)cc(-c3ccc(N)c(F)c3)oc2c1F [Compound 7, 5-Amino-2-(4-amino-3-fluorophenyl)-7-(3-dimethylaminopropionyl) oxymethyl-6,8-difluoro-4H-1-benzopyran-4-one]
- IC50 [1]: 19 nM
- response vs control in vivo at 25 mg/kg [2]: 4.1%

Compound: CN(C)CCCC(=O)OCc1c(F)c(N)c2c(=O)cc(-c3ccc(N)c(F)c3)oc2c1F [Compound 8, 5-A-mino-2-(4-amino-3-fluorophenyl)-7-(4-dimethylaminobutyryl)oxymethyl-6,8-difluoro-4H-1-benzopyran-4-one]
- IC50 [1]: 29 nM
- response vs control in vivo at 25 mg/kg [2]: 15%

Compound: CN1CCN(C(=O)OCc2c(F)c(N)c3c(=O)cc(-c4ccc(N)c(F)c4)oc3c2F)CC1 [Compound 2, 5-Amino-2-(4-amino-3-fluorophenyl)-6,8-difluoro-7-(4-methylpiperazinyl)carbonyloxymethyl-4H-1-benzopyran-4-one]
- IC50 [1]: 230 nM

Compound: CN(C)CCN(C)CC(=O)OCc1c(F)c(N)c2c(=O)cc(-c3ccc(N)c(F)c3)oc2c1F [Compound 13, 5-Amino-2-(4-amino-3-fluorophenyl)-7-[N-(2-dimethylaminoethyl)-N-methylamino)acetoxymethyl-6,8-difluoro-4H-1-benzopyran-4-one]
- response vs control in vivo at 25 mg/kg [2]: 2.2%

Compound: C=CCOC(=O)OCc1c(F)c(N)c2c(=O)cc(-c3ccc(N)c(F)c3)oc2c1F [Compound 15, 7-Allyloxycarbonyloxymethyl-5-amino-2-(4-amino-3-fluorophenyl)-6,8-difluoro-4H-1-benzopyran-4-one]
- IC50 [1]: 81 nM

Compound: CN(C)CC(=O)OCc1c(F)c(N)c2c(=O)cc(-c3ccc(N)c(F)c3)oc2c1F [Compound 6, 5-Amino-2-(4-amino-3-fluorophenyl) -7-dimethylaminoacetoxymethyl-6,8-difluoro-4H-1-benzopyran-4-one]
- IC50 [1]: 26 nM
- weight of uterus [3]: 67 mg
- response vs control in vivo at 25 mg/kg [2]: 1.2%

Compound: CN1CCN(CC(=O)OCc2c(F)c(N)c3c(=O)cc(-c4ccc(N)c(F)c4)oc3c2F)CC1 [Compound 10, 5-Amino-2-(4-amino-3-fluorophenyl)-6,8-difluoro-7-(4-methylpiperazinyl)acetoxymethyl-4H-1-benzopyran-4-one]
- IC50 [1]: 87 nM
- response vs control in vivo at 25 mg/kg [2]: 7%

Compound: COC(=O)CNCC(=O)OCc1c(F)c(N)c2c(=O)cc(-c3ccc(N)c(F)c3)oc2c1F [Compound 14, 5-Amino-2-(4-amino-3-fluorophenyl)-6,8-difluoro-7-methoxycarbonylmethylaminoacetoxymethyl-4H-1-benzopyran-4-one]
- IC50 [1]: 13 nM
- response vs control in vivo at 25 mg/kg [2]: 1.3%
